According to the NIST ThermoML archive (doi:10.1016/j.jct.2018.10.015):
Numbers after ± are expanded uncertainties.

Assay: xn = mol fraction of the nth substance listed
Details: 101.3 kPa, Liquid; for viscosity: Concentric cylinders viscometry; for mass density: Vibrating tube method

CCCCn1cc[n+](C)c1C.O=S(=O)([N-]S(=O)(=O)C(F)(F)F)C(F)(F)F + CCOC(=O)OCC
Details	mass density, 293.15 K [kg/m3]	mass density, 298.15 K [kg/m3]	mass density, 303.15 K [kg/m3]	mass density, 308.15 K [kg/m3]	viscosity, 293.15 K [mPa·s]	viscosity, 298.15 K [mPa·s]	viscosity, 303.15 K [mPa·s]	viscosity, 308.15 K [mPa·s]
x1 = 0.0996	1078.2 ± 2.4	1072.9 ± 2.4	1067.5 ± 2.4	1062.1 ± 2.4	2.172 ± 0.028	1.989 ± 0.025	1.829 ± 0.023	1.689 ± 0.021
x1 = 0.199	1156.1 ± 2.4	1151 ± 2.4	1145.8 ± 2.4	1140.6 ± 2.4	4.104 ± 0.053	3.665 ± 0.045	3.295 ± 0.04	2.979 ± 0.037
x1 = 0.299	1216.4 ± 2.4	1211.4 ± 2.4	1206.4 ± 2.4	1201.3 ± 2.4	7.648 ± 0.096	6.684 ± 0.081	5.892 ± 0.072	5.234 ± 0.063
x1 = 0.3982	1263.9 ± 2.4	1259 ± 3	1254.1 ± 2.4	1249.1 ± 2.4	13.1 ± 0.16	11.19 ± 0.14	9.654 ± 0.12	8.41 ± 0.1
x1 = 0.4985	1302.6 ± 2.4	1297.7 ± 2.4	1292.9 ± 2.4	1288.1 ± 2.4	21.35 ± 0.27	17.82 ± 0.22	15.06 ± 0.18	12.88 ± 0.16
x1 = 0.5979	1334.6 ± 2.4	1329.8 ± 2.4	1325.1 ± 2.4	1320.3 ± 2.4	33.14 ± 0.42	27.06 ± 0.33	22.44 ± 0.27	18.86 ± 0.23
x1 = 0.698	1361.8 ± 2.5	1357.1 ± 2.5	1352.4 ± 2.5	1347.6 ± 2.5	49.42 ± 0.62	39.58 ± 0.49	32.24 ± 0.4	26.64 ± 0.33
x1 = 0.8	1385.4 ± 2.5	1380.8 ± 2.5	1376.1 ± 2.5	1371.4 ± 2.5	71.45 ± 0.93	56.2 ± 0.69	44.95 ± 0.56	36.59 ± 0.45
x1 = 0.9012	1405.7 ± 2.5	1401.1 ± 2.5	1396.5 ± 2.5	1391.9 ± 2.5	99.34 ± 1.5	76.75 ± 1	60.57 ± 0.75	48.62 ± 0.6
x1 = 1	1423.1 ± 2.5	1418.5 ± 2.5	1413.9 ± 2.5	1409.3 ± 2.5	133.6 ± 2.3	101.82 ± 1.6	79.23 ± 1.1	62.74 ± 0.78
